pIC50: −log10 of the molar value.
Columns and labels:
Assay in all cases: Enzyme Assay
PIK3CA (human) = PIK3CA (human) (UniProt P42336)
PIK3CD (Human) = PIK3CD (Human) (UniProt O00329)
PIK3CB (Human) = PIK3CB (Human) (UniProt P42338)
Sequence of PIK3CB (Human) (P42338 whole entry, looked up): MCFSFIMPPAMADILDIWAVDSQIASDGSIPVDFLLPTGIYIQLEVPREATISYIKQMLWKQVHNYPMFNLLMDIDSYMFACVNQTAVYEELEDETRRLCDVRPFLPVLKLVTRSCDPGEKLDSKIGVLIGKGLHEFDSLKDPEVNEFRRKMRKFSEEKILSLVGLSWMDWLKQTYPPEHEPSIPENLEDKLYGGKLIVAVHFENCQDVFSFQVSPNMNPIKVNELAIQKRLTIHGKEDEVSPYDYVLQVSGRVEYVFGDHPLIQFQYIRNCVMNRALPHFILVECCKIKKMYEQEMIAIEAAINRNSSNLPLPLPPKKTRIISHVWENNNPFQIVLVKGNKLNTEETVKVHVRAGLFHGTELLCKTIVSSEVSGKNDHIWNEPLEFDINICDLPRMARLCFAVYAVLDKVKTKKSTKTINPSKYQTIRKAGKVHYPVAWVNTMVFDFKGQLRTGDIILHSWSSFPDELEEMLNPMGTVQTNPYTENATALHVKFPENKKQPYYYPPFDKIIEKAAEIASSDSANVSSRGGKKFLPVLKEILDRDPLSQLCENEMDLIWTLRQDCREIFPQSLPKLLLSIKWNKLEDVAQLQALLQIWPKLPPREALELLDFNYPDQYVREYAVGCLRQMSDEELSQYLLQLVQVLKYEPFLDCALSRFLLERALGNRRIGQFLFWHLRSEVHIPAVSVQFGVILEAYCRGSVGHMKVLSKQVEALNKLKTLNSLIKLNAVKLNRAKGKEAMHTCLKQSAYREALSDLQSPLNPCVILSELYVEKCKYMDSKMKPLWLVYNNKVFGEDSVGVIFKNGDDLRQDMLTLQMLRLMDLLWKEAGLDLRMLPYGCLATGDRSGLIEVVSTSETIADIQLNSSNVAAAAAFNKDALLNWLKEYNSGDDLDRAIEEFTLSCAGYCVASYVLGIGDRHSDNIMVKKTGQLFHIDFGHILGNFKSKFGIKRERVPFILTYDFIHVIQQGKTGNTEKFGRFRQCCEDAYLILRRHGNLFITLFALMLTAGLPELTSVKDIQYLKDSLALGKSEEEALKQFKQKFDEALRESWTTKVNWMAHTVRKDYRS

Sequence of PIK3CD (Human) (O00329 whole entry, looked up): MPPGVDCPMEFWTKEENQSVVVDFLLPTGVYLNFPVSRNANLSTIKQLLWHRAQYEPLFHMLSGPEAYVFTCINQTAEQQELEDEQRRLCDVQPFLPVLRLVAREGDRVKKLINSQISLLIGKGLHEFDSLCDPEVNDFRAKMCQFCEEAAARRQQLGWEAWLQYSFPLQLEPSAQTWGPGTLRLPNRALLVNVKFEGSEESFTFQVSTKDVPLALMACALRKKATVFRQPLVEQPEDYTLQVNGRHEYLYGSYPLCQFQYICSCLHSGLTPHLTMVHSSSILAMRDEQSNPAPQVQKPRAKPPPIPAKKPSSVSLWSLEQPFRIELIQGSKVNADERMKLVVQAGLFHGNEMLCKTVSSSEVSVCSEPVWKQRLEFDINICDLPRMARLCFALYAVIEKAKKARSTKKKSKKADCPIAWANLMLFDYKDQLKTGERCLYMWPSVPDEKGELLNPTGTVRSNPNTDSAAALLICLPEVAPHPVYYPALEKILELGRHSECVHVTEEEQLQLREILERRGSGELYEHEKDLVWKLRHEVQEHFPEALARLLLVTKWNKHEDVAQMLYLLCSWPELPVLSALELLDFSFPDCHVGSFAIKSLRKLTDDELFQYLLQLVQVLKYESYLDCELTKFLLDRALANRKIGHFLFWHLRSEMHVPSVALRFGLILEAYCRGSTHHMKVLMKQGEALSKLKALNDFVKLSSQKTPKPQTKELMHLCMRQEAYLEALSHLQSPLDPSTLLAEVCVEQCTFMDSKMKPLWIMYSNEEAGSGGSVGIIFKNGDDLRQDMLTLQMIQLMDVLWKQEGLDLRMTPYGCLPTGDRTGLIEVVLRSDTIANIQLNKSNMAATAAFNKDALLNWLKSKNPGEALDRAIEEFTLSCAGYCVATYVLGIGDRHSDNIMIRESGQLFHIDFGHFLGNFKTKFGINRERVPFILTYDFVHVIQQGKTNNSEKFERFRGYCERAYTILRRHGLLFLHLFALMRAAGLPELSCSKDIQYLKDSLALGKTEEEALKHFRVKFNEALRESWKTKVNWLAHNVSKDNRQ
Sequence of PIK3CA (human) (P42336 whole entry, looked up): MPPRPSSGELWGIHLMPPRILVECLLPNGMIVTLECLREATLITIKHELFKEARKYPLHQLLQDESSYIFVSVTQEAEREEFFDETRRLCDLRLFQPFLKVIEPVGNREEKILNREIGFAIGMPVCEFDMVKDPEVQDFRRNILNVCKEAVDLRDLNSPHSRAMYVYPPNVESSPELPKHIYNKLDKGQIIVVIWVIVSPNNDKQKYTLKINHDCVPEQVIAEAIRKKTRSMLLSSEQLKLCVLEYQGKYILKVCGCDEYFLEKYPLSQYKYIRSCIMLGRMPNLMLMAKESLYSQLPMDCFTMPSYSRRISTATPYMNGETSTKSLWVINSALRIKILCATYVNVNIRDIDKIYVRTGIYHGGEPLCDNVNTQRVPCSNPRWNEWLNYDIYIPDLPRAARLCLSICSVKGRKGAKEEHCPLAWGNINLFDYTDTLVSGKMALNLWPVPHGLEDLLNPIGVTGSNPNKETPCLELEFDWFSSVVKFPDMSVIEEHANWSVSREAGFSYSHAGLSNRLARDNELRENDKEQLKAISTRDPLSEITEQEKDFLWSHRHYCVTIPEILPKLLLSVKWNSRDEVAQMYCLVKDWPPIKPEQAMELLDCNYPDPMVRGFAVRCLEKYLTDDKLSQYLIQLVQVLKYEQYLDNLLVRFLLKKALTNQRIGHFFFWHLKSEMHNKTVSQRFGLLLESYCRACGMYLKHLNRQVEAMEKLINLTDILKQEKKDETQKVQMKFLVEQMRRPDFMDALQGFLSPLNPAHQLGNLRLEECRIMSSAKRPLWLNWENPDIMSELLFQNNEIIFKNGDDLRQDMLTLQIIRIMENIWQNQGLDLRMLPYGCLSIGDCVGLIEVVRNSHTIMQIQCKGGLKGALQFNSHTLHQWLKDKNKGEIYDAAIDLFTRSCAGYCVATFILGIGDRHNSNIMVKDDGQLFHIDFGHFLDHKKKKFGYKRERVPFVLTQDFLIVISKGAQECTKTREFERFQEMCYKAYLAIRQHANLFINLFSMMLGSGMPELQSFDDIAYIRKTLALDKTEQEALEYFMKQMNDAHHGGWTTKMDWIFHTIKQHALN

SMILES | pIC50 (PIK3CA (human)) | pIC50 (PIK3CD (Human)) | pIC50 (PIK3CB (Human))
COc1cc(-c2nn(Cc3cc4cccc(C)c4c(=O)n3-c3ccccc3C)c3ncnc(N)c23)ccc1Cl | < 5.00 | 6.00 to 7.00 | < 5.00
Cc1ccccc1-n1c(Cn2nc(-c3ccc4nc(N)ncc4c3)c3c(N)ncnc32)cc2cccc(C)c2c1=O | – | – | 6.00 to 7.00
CCc1nn(Cc2cc3cccc(C)c3c(=O)n2-c2ccccc2C)c2ncnc(N)c12 | < 5.00 | > 7.00 | < 5.00
Cc1cccc2cc(Cn3nc(I)c4c(N)ncnc43)n(C3CCC3)c(=O)c12 | < 5.00 | – | < 5.00
Cc1cccc2cc([C@H](C)Nc3ncnc4[nH]ccc34)n(C3CC3)c(=O)c12 | – | > 7.00 | > 7.00
CC(=O)Nc1nc2ccc(-c3nn(Cc4cc5cccc(C)c5c(=O)n4-c4ccccc4)c4ncnc(N)c34)cc2[nH]1 | < 5.00 | – | < 5.00
Cc1ccccc1-n1c(Cn2nc(-c3ccc(F)c(O)c3)c3c(N)ncnc32)cc2ccccc2c1=O | < 5.00 | – | < 5.00
Cc1cccc2cc([C@H](C)NC3CCOCC3)n(-c3ccccc3)c(=O)c12 | < 5.00 | < 5.00 | < 5.00
Cc1cccc2cc([C@H](C)Nc3ncnc4[nH]cc(Cl)c34)n(-c3ccccc3)c(=O)c12 | 6.00 to 7.00 | > 7.00 | > 7.00
Cc1cccc2cc(C(C)Nc3nc(Cl)ncc3N)n(-c3ccccc3)c(=O)c12 (configuration not stated) | < 5.00 | < 5.00 | < 5.00
Cc1cccc2cc(Cn3nc(-c4cnn(C)c4)c4c(N)ncnc43)n(-c3ccccc3F)c(=O)c12 | < 5.00 | – | < 5.00
Cc1cccc2cc(Cn3nc(-c4cc(O)cc(F)c4)c4c(N)ncnc43)n(-c3ccccc3O)c(=O)c12 | – | – | 6.00 to 7.00
Cc1cccc2cc(C(C)Nc3nc(O)ncc3N)n(-c3ccccc3)c(=O)c12 (configuration not stated) | < 5.00 | < 5.00 | < 5.00
Cc1cccc2cc([C@H](C)Nc3cc(N)nc(Cl)n3)n(-c3ccccc3)c(=O)c12 | < 5.00 | 6.00 to 7.00 | < 5.00
Cc1cccc2cc(Cn3nc(I)c4c(N)ncnc43)n(C3CCCCC3)c(=O)c12 | < 5.00 | 6.00 to 7.00 | < 5.00
Cc1cccc2cc(C(C)Nc3ncnc4[nH]cnc34)n(C3CCN(C)CC3)c(=O)c12 (configuration not stated) | < 5.00 | > 7.00 | 6.00 to 7.00
Cc1ccccc1-n1c(Cn2nc(CCC(=O)N3CCOCC3)c3c(N)ncnc32)cc2cccc(C)c2c1=O | < 5.00 | – | < 5.00
Cc1cccc2cc(Cn3nc(C4=CCOCC4)c4c(N)ncnc43)n(-c3ccccc3)c(=O)c12 | < 5.00 | < 5.00 | < 5.00
Cc1ccccc1-n1c(Cn2nc(CCC(N)=O)c3c(N)ncnc32)cc2cccc(C)c2c1=O | < 5.00 | 6.00 to 7.00 | < 5.00
CCc1ccccc1-n1c(Cn2nc(-c3cccc(O)c3)c3c(N)ncnc32)cc2cccc(C)c2c1=O | < 5.00 | – | < 5.00
CC(=O)Nc1nc2cc(-c3nn(Cc4cc5cccc(C)c5c(=O)n4-c4ccccc4C)c4ncnc(N)c34)ccc2o1 | – | > 7.00 | 6.00 to 7.00
Cc1cccc2cc([C@H](C)Nc3ncnc4[nH]cc(F)c34)n(C3CC3)c(=O)c12 | 6.00 to 7.00 | > 7.00 | > 7.00
CC(=O)Nc1nc2ccc(-c3nn(Cc4cc5cccc(C)c5c(=O)n4C)c4ncnc(N)c34)cc2s1 | – | – | 6.00 to 7.00
Cc1cccc2cc(Cn3nc(I)c4c(N)ncnc43)n(C(C)C)c(=O)c12 | < 5.00 | – | < 5.00

SMILES | pIC50 (PIK3CA (human)) | pIC50 (PIK3CD (Human)) | pIC50 (PIK3CB (Human))
CCn1c(Cn2nc(-c3ccc4nc(NC(C)=O)sc4c3)c3c(N)ncnc32)cc2cccc(C)c2c1=O | – | – | 6.00 to 7.00
COc1ccc(-c2nn(Cc3cc4cccc(C)c4c(=O)n3-c3ccccc3C)c3ncnc(N)c23)cc1OC | < 5.00 | 6.00 to 7.00 | < 5.00
Cc1cccc2cc(Cn3nc(-c4ccc5oc(N)nc5c4)c4c(N)ncnc43)n(C3CCC3)c(=O)c12 | 6.00 to 7.00 | > 7.00 | 6.00 to 7.00
Cc1cccc2cc([C@H](C)Nc3ncnc4[nH]cc(Br)c34)n(-c3ccccc3)c(=O)c12 | 6.00 to 7.00 | > 7.00 | > 7.00
Cc1cccc2cc(Cn3nc(C#C[C@@H](C)O)c4c(N)ncnc43)n(-c3ccccc3O)c(=O)c12 | < 5.00 | – | < 5.00
Cc1cccc2cc(Cn3nc(C(C)C)c4c(N)ncnc43)n(-c3ccccc3)c(=O)c12 | < 5.00 | – | < 5.00
Cc1cccc2cc(Cn3nc(-c4cc(O)cc(F)c4)c4c(N)ncnc43)n(-c3ccccc3C(C)C)c(=O)c12 | 6.00 to 7.00 | – | 6.00 to 7.00
Cc1ccccc1-n1c(Cn2nc(CC#N)c3c(N)ncnc32)cc2cccc(C)c2c1=O | – | > 7.00 | < 5.00
Cc1cccc2cc([C@H](C)Nc3ncc(C(F)(F)F)c(N)n3)n(-c3ccccc3)c(=O)c12 | < 5.00 | – | < 5.00
CCC(Nc1ncnc2[nH]cnc12)c1cc2cccc(C)c2c(=O)n1-c1c(F)cccc1F (configuration not stated) | – | – | < 5.00
Cc1ccccc1-n1c(Cn2nc(C#C[C@@H](C)O)c3c(N)ncnc32)cc2cccc(C)c2c1=O | < 5.00 | – | < 5.00
Cc1cccc2cc(Cn3nc(-c4ccc(Cl)c(O)c4)c4c(N)ncnc43)n(-c3ccccc3F)c(=O)c12 | < 5.00 | – | < 5.00
CC(=O)Nc1nc2cc(-c3nn(Cc4cc5cccc(C)c5c(=O)n4-c4ccccc4)c4ncnc(N)c34)ccc2o1 | – | > 7.00 | > 7.00
Cc1cccc2cc(C(C)Nc3ncnc4[nH]cnc34)n(-c3ccc(F)cc3)c(=O)c12 (configuration not stated) | – | > 7.00 | 6.00 to 7.00
Cc1ccccc1-n1c(Cn2nc(-c3ccc(Cl)c(O)c3)c3c(N)ncnc32)cc2ccccc2c1=O | < 5.00 | – | < 5.00
Cc1cccc2cc(Cn3nc(-c4cn[nH]c4)c4c(N)ncnc43)n(-c3ccccc3C(C)C)c(=O)c12 | – | – | 6.00 to 7.00
Cc1cccc2cc(Cn3nc(-c4ccc(F)c(O)c4)c4c(N)ncnc43)n(C3CCCC3)c(=O)c12 | < 5.00 | – | < 5.00
Cc1ccccc1-n1c(Cn2nc(-c3ccc4ncnc(N)c4c3)c3c(N)ncnc32)cc2cccc(C)c2c1=O | – | – | < 5.00
CCN(Cc1cc2cccc(C)c2c(=O)n1-c1ccccc1C)c1ncnc2[nH]cnc12 | < 5.00 | – | < 5.00
Cc1cccc2cc(Cn3nc(I)c4c(N)ncnc43)n(-c3ccccc3O)c(=O)c12 | < 5.00 | – | < 5.00
Cc1cccc2cc(Cn3nc(CF)c4c(N)ncnc43)n(-c3ccccc3)c(=O)c12 | – | > 7.00 | < 5.00
Cc1cccc2cc([C@H](C)Nc3ncnc4[nH]nc(C#N)c34)n(-c3ccccc3)c(=O)c12 | – | > 7.00 | > 7.00
Cc1ccccc1-n1c(Cn2nc(-c3ccc(F)c(O)c3)c3c(N)ncnc32)cc2cccc(F)c2c1=O | < 5.00 | – | < 5.00
Cc1cccnc1-n1c(Cn2nc(-c3ccc(F)c(O)c3)c3c(N)ncnc32)cc2cccc(C)c2c1=O | < 5.00 | – | < 5.00

SMILES | pIC50 (PIK3CA (human)) | pIC50 (PIK3CD (Human)) | pIC50 (PIK3CB (Human))
Cc1cccc2cc([C@H](C)Nc3ncnc4[nH]cnc34)n(C3CC3)c(=O)c12 | – | > 7.00 | > 7.00
Cc1ccccc1-n1c(Cn2nc(CF)c3c(N)ncnc32)cc2cccc(C)c2c1=O | – | > 7.00 | < 5.00
Cc1cccc2cc(Cn3nc(C#C[C@@H](C)O)c4c(N)ncnc43)n(C3CCCCC3)c(=O)c12 | < 5.00 | – | < 5.00
Cc1cccc2cc(Cn3nc(C#N)c4c(N)ncnc43)n(-c3ccccc3F)c(=O)c12 | < 5.00 | – | < 5.00
Cc1cccc2cc(Cn3nc(-c4cccc(O)c4)c4c(N)ncnc43)n(-c3ccccc3)c(=O)c12 | < 5.00 | – | < 5.00
Cc1cccc2cc(Cn3nc(-c4cccc(F)c4)c4c(N)ncnc43)n(-c3ccccc3F)c(=O)c12 | < 5.00 | – | < 5.00
Cc1cccc2cc([C@H](C)Nc3ncnc4[nH]nc(C(N)=O)c34)n(-c3ccccc3)c(=O)c12 | – | > 7.00 | > 7.00
Cc1cccc2cc(C(C)Nc3ncnc4[nH]cnc34)n(C3CC3)c(=O)c12 (configuration not stated) | – | > 7.00 | 6.00 to 7.00
CCc1ccccc1-n1c(Cn2nc(-c3cc(O)cc(F)c3)c3c(N)ncnc32)cc2cccc(C)c2c1=O | – | – | 6.00 to 7.00
Cc1ccccc1-n1c(Cn2nc(CN3CCOCC3)c3c(N)ncnc32)cc2cccc(C)c2c1=O | < 5.00 | – | < 5.00
Cc1cccc2cc([C@H](C)Nc3ncnc4[nH]nc(C(N)=O)c34)n(C3CC3)c(=O)c12 | – | > 7.00 | > 7.00
Cc1ccccc1-n1c(CN(C)c2ncnc3[nH]cnc23)cc2cccc(C)c2c1=O | < 5.00 | – | < 5.00
Cc1cccc2cc(Cn3nc(-c4cccc(O)c4)c4c(N)ncnc43)n(C3CC3)c(=O)c12 | 6.00 to 7.00 | – | 6.00 to 7.00
Cc1cccc2cc(Cn3nc(-c4cccc(O)c4)c4c(N)ncnc43)n(C(C)C)c(=O)c12 | < 5.00 | – | 6.00 to 7.00
Cc1cccc2cc([C@H](C)Nc3ncnc4[nH]cc(F)c34)n(-c3ccccc3)c(=O)c12 | – | > 7.00 | > 7.00
Cc1cccc2cc(Cn3nc(-c4cc(O)cc(F)c4)c4c(N)ncnc43)n(-c3ccccc3Cl)c(=O)c12 | – | – | 6.00 to 7.00
CC(=O)Nc1nc2ccc(-c3nn(Cc4cc5cccc(C)c5c(=O)n4C4CCC4)c4ncnc(N)c34)cc2s1 | – | – | 6.00 to 7.00
COc1ccc(-c2nn(Cc3cc4cccc(C)c4c(=O)n3-c3ccccc3C)c3ncnc(N)c23)cc1 | < 5.00 | 6.00 to 7.00 | –
Cc1cccc2cc([C@H](C)Nc3cc(N)nc(N)n3)n(C3CC3)c(=O)c12 | < 5.00 | – | < 5.00
CCC(Nc1ncnc2[nH]cnc12)c1cc2cccc(C)c2c(=O)n1C(C)C (configuration not stated) | < 5.00 | > 7.00 | –
Cc1cccc2cc(Cn3nc(-c4cccc(O)c4)c4c(N)ncnc43)n(-c3ccccc3C(C)C)c(=O)c12 | < 5.00 | – | 6.00 to 7.00
Cc1ccccc1-n1c(Cn2nc(C#N)c3c(N)ncnc32)cc2cccc(C)c2c1=O | < 5.00 | – | < 5.00
Cc1ccccc1-n1c(Cn2nc(-c3cccc(O)c3)c3c(N)ncnc32)cc2cccc(F)c2c1=O | < 5.00 | – | < 5.00
